# Experimental data published in patent publication US20100069308A1, “Surfaces containing antibacterial polymers” (priority 2008, published 2010).
# How the values were obtained:
# [1] = tested on: E. coli; details: cited from earlier work
# [2] = tested on: B. subtilis; details: cited from earlier work
# [3] = tested on: bacterial colonies; test: Antibacterial activity in the presence of biological serum (FIG. 1, number of bacterial colonies vs concentration); format: cell-based; details: after 24 hours in biological serum
# Experimental: Due to their mechanism of action, such antibacterial peptides should not be susceptible to resistance. […] In FIG. 1, panels 100A and 100B show the number of bacterial colonies as a function of the concentration of pexiganan 101A/B and ID 1 103 A/B, after 2 and 24 hours respectively, in biological serum. […] Accordingly, a peptide alternative that kills bacteria by a mechanism similar to that of antibacterial peptides but without the biological susceptibility would provide greater protection against bacterial colonization.
# FIG. 1 depicts the activity of ID 1 and an antibacterial peptide (pexiganan) in the presence of biological serum.
# [4] = tested on: Streptococcus pneumoniae; details: cited from earlier work
# [5] = tested on: Haemophilus influenzae; details: cited from earlier work
# [6] = tested on: Staphylococcus aureus; details: cited from earlier work
# [7] = tested on: Escherichia coli; details: cited from earlier work
# [8] = tested on: Enterococcus faecalis; details: cited from earlier work
# [9] = tested on: Psuedomonas aeruginosa; details: cited from earlier work
Substance,E. coli MIC [1] [µM],B. subtilis MIC [2],also measured
H-NLys-Nssb-Nspe-Nssb-Nspe-NLys-Nspe-NLys-Nssb-Nssb-Nspe-NLys-NH2 [ID 15],3.1,15 µM,–
H—(NGlu-Nspe-Nspe)4-NH2 [ID 13],>219,>219 µM,–
H—(NLys)4-(Nspe)8-NH2 [ID 14],6.9,1.7 µM,–
H—(NLys-Nrpe-Nrpe)4-NH2 [ID 3],3.5,.88 µM,–
H—(NLys-Nsmb-Nspe)4-NH2 [ID 7],7.4,.95 µM,–
H—(NLys-Nspe-Nspe)2-NH2 [ID 4],27,27 µM,–
H—(NLys-Nspe-Nspe)3-NH2 [ID 5],9.1,1.2 µM,–
H—(NLys-Nspe-Nspe)4-NH2 [ID 1],3.5,.88 µM,Activity (number of bacterial colonies) in biological serum [3]: retains activity; MIC [4]: 1.7 to 3.4 µM; MIC [5]: 6.9 µM; MIC [6]: 3.4 µM; MIC [7]: 14 to 28 µM; MIC [8]: 3.4 to 6.9 µM; MIC [9]: 28 µM
H—(NLys-Nspe-Nspe)5-NH2 [ID 6],5.5,1.4 µM,–
H—(NLys-Nspe-Nspe-NGlu-Nspe-Nspe)2-NH2 [ID 12],>110,6.9 µM,–
H—(NLys-Nspe-Nspe-NLys-Nspe-L-Pro-(NLys-Nspe-Nspe)2-NH2 [ID 11],3.1,1.6 µM,–
H—(NLys-Nspe-Nspe-NLys-Nspe-NHis)2-NH2 [ID 10],3.5,6.9 µM,–
H—(NLys-Nspe-Nspe-NLys-Nspe-Nsna)2-NH2 [ID 9],3.3,1.6 µM,–
H—(NLys-Nssb-Nspe)4-NH2 [ID 2],31,3.9 µM,–
H—(NLys-Nssb-Nspe-NLys-Nssb-Nsna)2-NH2 [ID 8],7.2,.93 µM,–
